# Reference: the supplement of paper PMC10307832
# Columns and labels:
# Assay in all cases: relative viability (nuclei count vs DMSO), 5 days (fraction); higher = more cells survive
# NCI-H650 = settings: first compound 4 µM
# Summary of the method: (§1)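 Lung cancer cell lines were pin-tool dosed in 1536-well plates on the day after seeding, with either a lone drug or a fixed anchor-drug dose plus five library-drug doses (not always all listed) in √10 steps. Nuclei were counted on 4× images after 5 days. Relative viability is the ratio of treated-well to vehicle-well nuclei counts, with each value a median of duplicate plates.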
# EKVX = test system: EKVX
# Summary of the method: as §1
# HCC-827 = test system: HCC-827
# Summary of the method: as §1
# NCI-H838 = test system: NCI-H838
# Summary of the method: as §1
# NCI-H1792 = test system: NCI-H1792
# Summary of the method: as §1
# NCI-H1666 = test system: NCI-H1666
# Summary of the method: as §1
# 201T = test system: 201T
# Summary of the method: as §1
# SK-MES-1 = test system: SK-MES-1
# Summary of the method: as §1
# NCI-H522 = test system: NCI-H522
# Summary of the method: as §1
# NCI-H23 = test system: NCI-H23
# Summary of the method: as §1
# NCI-H441 = test system: NCI-H441
# Summary of the method: as §1
# HARA = test system: HARA
# Summary of the method: as §1
# LCLC-103H = test system: LCLC-103H
# Summary of the method: as §1
smiles,measurement,setting,value
COc1cc(N2CCC(C(N)=O)CC2)ccc1Nc1nc(N)c(Cl)c(Nc2ccccc2S(=O)(=O)C(C)C)n1 [HG-5-88-01] + Nc1ncn([C@H]2C[C@H](O)[C@@H](CO)O2)c(=O)n1 [Decitabine] (partner 2 µM),relative viability,NCI-H650,0.306
same,relative viability,EKVX; first compound 0.04 µM,0.392
same,relative viability,EKVX; first compound 0.1265 µM,0.332
same,relative viability,EKVX; first compound 0.4 µM,0.389
same,relative viability,EKVX; first compound 4 µM,0.345
same,relative viability,HCC-827; first compound 0.04 µM,0.292
same,relative viability,HCC-827; first compound 0.1265 µM,0.304
same,relative viability,HCC-827; first compound 0.4 µM,0.354
same,relative viability,HCC-827; first compound 1.265 µM,0.19
same,relative viability,HCC-827; first compound 4 µM,0.209
same,relative viability,NCI-H838; first compound 0.04 µM,0.46
same,relative viability,NCI-H838; first compound 0.1265 µM,0.467
same,relative viability,NCI-H838; first compound 0.4 µM,0.491
same,relative viability,NCI-H838; first compound 1.265 µM,0.407
same,relative viability,NCI-H838; first compound 4 µM,0.341
same,relative viability,NCI-H1792; first compound 0.04 µM,0.628
same,relative viability,NCI-H1792; first compound 0.1265 µM,0.452
same,relative viability,NCI-H1792; first compound 0.4 µM,0.579
same,relative viability,NCI-H1792; first compound 1.265 µM,0.564
same,relative viability,NCI-H1792; first compound 4 µM,0.545
same,relative viability,NCI-H1666; first compound 0.04 µM,0.66
same,relative viability,NCI-H1666; first compound 0.1265 µM,0.743
same,relative viability,NCI-H1666; first compound 0.4 µM,0.779
same,relative viability,NCI-H1666; first compound 1.265 µM,0.622
same,relative viability,NCI-H1666; first compound 4 µM,0.566
same,relative viability,201T; first compound 0.04 µM,0.856
same,relative viability,201T; first compound 0.1265 µM,0.864
same,relative viability,201T; first compound 1.265 µM,0.852
same,relative viability,201T; first compound 4 µM,0.891
same,relative viability,SK-MES-1; first compound 0.04 µM,0.408
same,relative viability,SK-MES-1; first compound 0.1265 µM,0.368
same,relative viability,SK-MES-1; first compound 0.4 µM,0.407
same,relative viability,SK-MES-1; first compound 1.265 µM,0.459
same,relative viability,SK-MES-1; first compound 4 µM,0.34
same,relative viability,NCI-H522; first compound 0.04 µM,0.702
same,relative viability,NCI-H522; first compound 0.1265 µM,0.773
same,relative viability,NCI-H522; first compound 0.4 µM,0.69
same,relative viability,NCI-H522; first compound 1.265 µM,0.687
same,relative viability,NCI-H522; first compound 4 µM,0.649
same,relative viability,NCI-H23; first compound 0.04 µM,0.365
same,relative viability,NCI-H23; first compound 0.1265 µM,0.331
same,relative viability,NCI-H23; first compound 0.4 µM,0.327
same,relative viability,NCI-H23; first compound 1.265 µM,0.282
same,relative viability,NCI-H23; first compound 4 µM,0.329
same,relative viability,NCI-H441; first compound 0.04 µM,0.235
same,relative viability,NCI-H441; first compound 0.1265 µM,0.28
same,relative viability,NCI-H441; first compound 0.4 µM,0.272
same,relative viability,NCI-H441; first compound 1.265 µM,0.231
same,relative viability,NCI-H441; first compound 4 µM,0.271
same,relative viability,HARA; first compound 0.04 µM,0.581
same,relative viability,HARA; first compound 0.1265 µM,0.504
same,relative viability,HARA; first compound 0.4 µM,0.663
same,relative viability,HARA; first compound 1.265 µM,0.451
same,relative viability,HARA; first compound 4 µM,0.494
same,relative viability,LCLC-103H; first compound 0.04 µM,0.776
same,relative viability,LCLC-103H; first compound 0.1265 µM,0.735
same,relative viability,LCLC-103H; first compound 0.4 µM,0.738
same,relative viability,LCLC-103H; first compound 1.265 µM,0.713
same,relative viability,LCLC-103H; first compound 4 µM,0.74
